From PubChem BioAssay (NCI) come the findings set out here.

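Five concentrations, 48 hours, 96-well plates. Abbreviation: GI50, concentration required for 50% inhibition of growth. TGI denotes the concentration required for complete inhibition of growth.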

What all share (experiment): DTP human tumour cell line panel, 48 h
In assay [1] the test system is K-562 leukemia.
Assay [2] concerns HOP-92 NSCLC.
For assay [3], the system named is UACC-62 melanoma.
Assay [4] relates to PC-3 prostate.
For assay [5], the system named is OVCAR-4 ovarian.
Assay [6] relates to SK-OV-3 ovarian.
Assay [7] concerns RPMI-8226 leukemia.
The subject of assay [8] is RXF 393 renal.
The test system of assay [9] is LOX IMVI melanoma.
Assay [10] relates to SR leukemia.

As usually defined, the GI50 is the concentration that inhibits growth by half. One may read the TGI as the concentration at which net growth stops. Turning to `CC1(C)[C@@H](OC(=O)CCC(=O)O)CC[C@]2(C)[C@H]3C(=O)C=C4[C@@H]5C[C@@](C)(C(=O)O)CC[C@]5(C)CC[C@@]4(C)[C@]3(C)CC[C@@H]12`, the GI50 in [1] was 56.2 µM; in [2], 58.6 µM; in [3], 48.1 µM; in assay [4] it was 56 µM; in assay [5] it was 64.6 µM; in assay [6] it was 59.4 µM. The GI50 is 50.9 µM in assay [7] and 50.5 µM in [8]. Moreover, the TGI in assay [1] was 230 µM; in [2] it was 87.2 µM; in assay [3] it was 60.6 µM; in assay [4], 127 µM; in [5] it was 168 µM; in assay [6], 127 µM. Further, the TGI amounted to 69.9 µM in assay [7] and 66 µM in assay [8].

In the case of `COc1ccc(-n2ccnc2-c2cc(OC)c(OC)c(OC)c2)cc1`, the GI50 in assay [1] is 3.14 µM; in assay [2], 20 µM; in assay [9], 7.99 µM; in assay [3], 2.61 µM; in assay [4] it was 3.3 µM; in assay [5] it was 11.3 µM. The GI50 is 5.76 µM in assay [6], 3.78 µM in assay [7] and 1.87 µM in [8]. For the same compound, the TGI in [1] is above 100 µM; in assay [2], above 100 µM; in assay [9], above 100 µM; in assay [3] it was 27.3 µM; in [4], above 100 µM; in assay [5], 85.7 µM. Moreover, the concentration for total growth inhibition (TGI) in [6] was above 100 µM; in [7], 30.7 µM; in [8] it was 11.9 µM.

Regarding `CC(=O)[CH-]C(=O)c1ccccc1.CC(=O)[CH-]C(=O)c1ccccc1.C[C@]12CCC(=O)C=C1CC[C@@H]1C2CC[C@@]2(C)C1CC[C@@H]2[O-].C[C@]12CCC(=O)C=C1CC[C@@H]1C2CC[C@@]2(C)C1CC[C@@H]2[O-].Cl.[Ti+4]` (some centres not stated), the GI50 was 23.2 µM in assay [1]; 16.9 µM in assay [9]; 6.67 µM in assay [3]; 23.4 µM in assay [5]; 27 µM in [6]; 18.8 µM in assay [7]. For the same compound, the GI50 in assay [8] is 16.2 µM. Besides, the TGI in assay [1] was above 100 µM; in [9], 38.8 µM; in [3], 33.8 µM; in assay [5], above 100 µM; in assay [6], 56.9 µM; in assay [7], above 100 µM. The TGI in [8] was 31.9 µM.

As for `COc1cc(/C=C/C(=O)N2CCN(C(=O)c3cc(OC)c(OC)c(OC)c3)CC2)ccc1OCCCOc1cc2c(cc1OC)C(=O)N1CCC[C@H]1C=N2`, the GI50 in assay [1] is 0.324 µM; in [2] it was 0.297 µM; in assay [9], 0.215 µM; in assay [3], 0.162 µM; in assay [4] it was 0.506 µM; in [5], 1.53 µM. The results for the GI50 in [6], in assay [7] and in assay [8] were 0.551 µM, 0.431 µM and 0.334 µM, respectively. Besides, the TGI in [1] is above 100 µM; in assay [2], 7.46 µM; in assay [9], 0.726 µM; in [3] it was 0.338 µM; in [4] it was above 34.3 µM; in [5], 27.5 µM. Further, the results for the TGI in assay [6], in [7] and in assay [8] were above 71.3 µM, above 100 µM and 3.68 µM, respectively.

In the case of `O=S(=O)(/N=c1/scc(-c2ccccc2)n1-c1ccccc1)c1ccc(N2N=C3c4ccccc4CC3C2c2cccs2)cc1` (configuration not stated), the TGI in assay [1], in assay [2], in assay [9], in assay [3], in assay [4] and in assay [5] was above 100 µM in each case. The TGI in assay [6], in [7] and in [8] was above 100 µM throughout. In addition, the GI50 is above 100 µM in [2]; 32.4 µM in assay [9]; 60.3 µM in [3]; 75 µM in [4]; above 100 µM in [5]; above 100 µM in [6]. Also, the GI50 in [7] was 51 µM; in [8] it was 98.2 µM.

`c1ccc2c(c1)N=C(c1cccc3ccccc13)CC(c1ccc3c(c1)OCO3)S2` (configuration not stated): the total growth inhibition concentration (TGI) in assay [1], in [9], in assay [3], in assay [10], in assay [5] and in assay [6] was above 100 µM each time. Further, the TGI in assay [8] was above 100 µM.

`O=C(/C(=C\c1ccc(Cl)cc1)c1ccccc1)c1ccccc1`: the TGI in assay [1], in assay [2], in [9], in [3], in assay [10] and in assay [5] was above 100 µM in each case. Also, the TGI in assay [6] and in [7] was above 100 µM in each case.

As to `CCOc1cccc(-c2nc(N)nc(Nc3ccccc3SSc3ccccc3Nc3nc(N)nc(-c4cccc(OCC)c4)n3)n2)c1`, the GI50 is 3.33 µM in [1]; 2.77 µM in assay [2]; 1.51 µM in [9]; 2.28 µM in assay [3]; 0.671 µM in assay [4]; 5.87 µM in assay [5]. For the same compound, the GI50 was 4.87 µM in assay [6], 2.18 µM in [7] and 2.86 µM in assay [8]. Further, the TGI is above 100 µM in [1]; 9.86 µM in assay [2]; 3.22 µM in assay [9]; 5.29 µM in [3]; 15.3 µM in assay [4]; above 100 µM in assay [5]. The TGI was above 100 µM in [6], 6.89 µM in [7] and 8.75 µM in assay [8].

Take `Clc1cc(Cl)cc(N2N=C(c3cccc(Nc4ccncc4)c3)CC2c2ccc3c(c2)OCO3)c1` (configuration not stated): the GI50 in assay [1] is 2.06 µM; in assay [2] it was 1.39 µM; in assay [3] it was 1.71 µM; in assay [4], 1.59 µM; in [5] it was 1.65 µM; in assay [6] it was 2.54 µM. The TGI is 4.86 µM in [1]; 2.82 µM in assay [2]; 3.17 µM in [3]; 3.18 µM in [4]; 3.18 µM in assay [5]; 8.38 µM in [6].

Regarding `NCCNCc1c2ccccc2c(CNCCN)c2ccccc12`, the TGI was 36.7 µM in assay [1]; 45.9 µM in assay [2]; 53.5 µM in assay [3]; above 100 µM in assay [10]; 38.6 µM in [8].

Consider `O=C(Nc1ccccc1)c1cc(S(=O)(=O)Nc2nc3ccccc3o2)c(SCc2ccccc2)cc1Cl`, for which the GI50 was 20.5 µM in assay [1]; 20 µM in assay [9]; 17.1 µM in assay [3]; 21.7 µM in assay [4]; 33.8 µM in assay [5]; 22.3 µM in assay [6]. Besides, the results for the GI50 in assay [7] and in assay [8] were 15.4 µM and 19.7 µM, respectively. For the same compound, the TGI in assay [1] was 68.7 µM; in [9] it was 40.3 µM; in assay [3], 31.6 µM; in assay [4], 46.7 µM; in assay [5], above 100 µM; in [6], 58.7 µM. Also, the total growth inhibition concentration (TGI) in assay [7] was 46.8 µM; in [8], 47.7 µM.

For `COC(=O)C(Cc1nc2ccccc2nc1C)/C(=N\NC(N)=O)C(=O)Nc1cccc([N+](=O)[O-])c1` (configuration not stated), the TGI in [1], in assay [9], in [3], in assay [10], in [5] and in assay [6] was above 100 µM each time. For the same compound, the TGI in assay [7] and in assay [8] was above 100 µM in each case.

For `CC(=O)OC1CC2C3CCC4C[C@@H](NC(=O)C=C(C)C)CC[C@]4(C)C3CC[C@]2(C)[C@H]1C(C)N(C)C` (some centres not stated), the GI50 in assay [1] was 0.509 µM; in assay [2], 0.89 µM; in assay [9], 1.07 µM; in assay [3], 2.16 µM; in [4], 2.14 µM; in [5], 2.82 µM. Besides, the GI50 in [6] is 2.79 µM; in [7] it was 1.66 µM; in [8], 1.59 µM. Further, the TGI in [1] came out at 2.22 µM; in assay [2], 4.06 µM; in assay [9], 2.53 µM; in assay [3] it was 4.45 µM; in assay [4], 8.97 µM; in [5], 17.5 µM. The TGI in assay [6] came out at 7.38 µM; in [7], 5.67 µM; in [8] it was 3.66 µM.

As for `COc1ccccc1NC(=O)c1nc2ccc([N+](=O)[O-])cc2nc1C`, the TGI in [1], in assay [2], in assay [9], in assay [3], in assay [5] and in [6] was above 100 µM each time. Moreover, the TGI in assay [7] is above 100 µM.

Turning to `CCNC(=O)O/N=C1\CCC2[C@@H]3CC=C4C[C@@H](OC5CCCCO5)CC[C@]4(C)C3CC[C@]12C` (some centres not stated), the TGI came out at 7.34 µM in [2]; 3.94 µM in assay [3]; 17.3 µM in assay [6]; 4.8 µM in assay [7]; 5.64 µM in assay [8].

Regarding `COC1=CC(c2ccc[nH]2)=N/C1=C\c1[nH]c(C)c(C(=O)CCCCC(=O)Oc2ccc3c(c2)CCC2C3CC[C@]3(C)[C@@H](O)CC[C@@H]23)c1C` (some centres not stated), the GI50 in assay [2] was 3.3 µM; in [3], 3.58 µM; in [10], 3.21 µM; in assay [5], 9.44 µM; in assay [6] it was above 100 µM; in [7], 4.11 µM. Moreover, the GI50 in assay [8] was 25.8 µM. The TGI in assay [2] was 29.2 µM; in assay [3] it was above 100 µM; in assay [10] it was above 100 µM; in [5], above 100 µM; in assay [6], above 100 µM; in assay [7] it was above 100 µM. The TGI in assay [8] was above 100 µM.

Turning to `O=C1CCSC2=C1SCc1sccc12`, the TGI in assay [1], in assay [2], in [9], in [3], in [5] and in assay [6] was above 100 µM in each case. Besides, the TGI in assay [7] and in assay [8] was above 100 µM each time.

As for `C=C(C(=C)P(=S)(c1ccccc1)c1ccccc1)P(=S)(c1ccccc1)c1ccccc1`, the TGI in assay [1], in assay [2], in assay [3], in [5], in [6] and in assay [7] was above 100 µM each time. For the same compound, the TGI in [8] is above 100 µM.

As to `c1ccc2cc(C[n+]3ccn(CCCCCCCCCCn4cc[n+](Cc5ccc6ccccc6c5)c4)c3)ccc2c1`, the GI50 in assay [1] was 0.602 µM; in assay [2] it was 0.396 µM; in [9], 1.21 µM; in [3], 0.646 µM; in assay [4], 1.19 µM; in assay [5] it was 0.988 µM. In addition, the GI50 in assay [6] is 1.36 µM; in assay [7], 0.737 µM; in assay [8], 0.822 µM. Also, the TGI in [1] came to 2.97 µM; in [2] it was 2.96 µM; in [9], 3.66 µM; in assay [3] it was 3.08 µM; in [4] it was 7.3 µM; in assay [5], 9.88 µM. Besides, the TGI in [6] turned out to be 6.39 µM; in assay [7], 4.17 µM; in [8], 3.72 µM.

Turning to `COc1cc(/C=C2\C[C@H]3[C@@H]4CC=C5C[C@@H](O)CC[C@]5(C)[C@H]4CC[C@]3(C)[C@H]2O)ccc1OCCCn1ccnc1`, the GI50 is 2.69 µM in assay [1]; 4.44 µM in [2]; 0.988 µM in assay [9]; 1.59 µM in assay [3]; 1.45 µM in assay [4]; 2.52 µM in assay [8]. Moreover, the TGI in [1] was above 50 µM; in assay [2], 12.5 µM; in [9] it was 2.01 µM; in [3] it was 6.65 µM; in assay [4], 5.03 µM; in assay [8], 43.4 µM.

With `Nc1cc(=O)n(-c2ccccc2)c(=S)n1-c1ccccc1`, the TGI in assay [1], in assay [9], in [3], in assay [6], in [7] and in [8] was above 100 µM each time.
